Laboratory results from ChEMBL document CHEMBL1201862, “PubChem BioAssay data set” (2004).
Where “and” joins values, the source holds several entries; their conditions need not be identical. Identical values can stand only once.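 Five concentrations, 48 hours, 96-well plates. GI50: concentration for 50% inhibition of growth.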 Calls of active or inactive are those of the source. Cut-off read from the data, not from the text of the source: active = GI50 up to about 1.1 µM and inactive = higher.

Experiments:
Test in all cases: growth of human tumour cells (NCI), 48 h
786-0 = system: 786-0
A498 = system: A498
ACHN = system: ACHN
CAKI-1 = system: CAKI-1
CCRF-CEM = system: CCRF-CEM
COLO 205 = system: COLO 205
DU-145 = system: DU-145
EKVX = system: EKVX
HCC 2998 = system: HCC 2998
HCT-116 = system: HCT-116
HCT-15 = system: HCT-15
HL-60 = system: HL-60
HOP-62 = system: HOP-62
HOP-92 = system: HOP-92
HT-29 = system: HT-29
Hs-578T = system: Hs-578T
IGROV-1 = system: IGROV-1
KM12 = system: KM12
LOX IMVI = system: LOX IMVI
M14 = system: M14
MCF7 = system: MCF7
MDA-MB-231 = system: MDA-MB-231
MDA-MB-435 = system: MDA-MB-435
MDA-N = system: MDA-N
MOLT-4 = system: MOLT-4
NCI-H226 = system: NCI-H226
NCI-H23 = system: NCI-H23
NCI-H460 = system: NCI-H460
NCI-H522 = system: NCI-H522
NCI/ADR-RES = system: NCI/ADR-RES
OVCAR-3 = system: OVCAR-3
OVCAR-5 = system: OVCAR-5
OVCAR-8 = system: OVCAR-8
RPMI-8226 = system: RPMI-8226
RXF 393 = system: RXF 393
SF-268 = system: SF-268
SF-295 = system: SF-295
SF-539 = system: SF-539
SK-MEL-5 = system: SK-MEL-5
SK-OV-3 = system: SK-OV-3
SN12C = system: SN12C
SNB-75 = system: SNB-75
SR = system: SR
SW-620 = system: SW-620
T47D = system: T47D
TK-10 = system: TK-10
U-251 = system: U-251
UACC-257 = system: UACC-257
UACC-62 = system: UACC-62
UO-31 = system: UO-31
A549 = system: A549
Malme-3M = system: Malme-3M
PC-3 = system: PC-3
SK-MEL-28 = system: SK-MEL-28

Measured: GI50

CCOC(=O)/C=C/C(=O)O/C=C/[N+](=O)[O-]
inactive: 786-0 > 100 µM | A498 > 100 µM | ACHN > 100 µM | CAKI-1 33.3 µM | CCRF-CEM 4.54 µM | COLO 205 > 100 µM | DU-145 > 100 µM | EKVX > 100 µM | HCC 2998 > 100 µM | HCT-116 > 100 µM | HL-60 > 100 µM | HOP-62 > 100 µM | HOP-92 > 100 µM | HT-29 > 100 µM | Hs-578T > 100 µM | IGROV-1 > 100 µM | KM12 > 100 µM | LOX IMVI > 100 µM | M14 > 100 µM | MCF7 > 100 µM | MDA-MB-231 > 100 µM | MDA-MB-435 > 100 µM | MDA-N > 100 µM | MOLT-4 > 100 µM | NCI-H226 > 100 µM | NCI-H23 > 100 µM | NCI-H460 > 100 µM | NCI-H522 > 100 µM | NCI/ADR-RES > 100 µM | OVCAR-3 > 100 µM | OVCAR-5 > 100 µM | OVCAR-8 > 100 µM | RPMI-8226 > 100 µM | RXF 393 > 100 µM | SF-268 > 100 µM | SF-295 > 100 µM | SF-539 > 100 µM | SK-MEL-5 > 100 µM | SK-OV-3 > 100 µM | SN12C > 100 µM | SNB-75 > 100 µM | SR > 100 µM | SW-620 > 100 µM | T47D > 100 µM | TK-10 > 100 µM | U-251 > 100 µM | UACC-257 > 100 µM | UACC-62 > 100 µM | UO-31 > 100 µM
> 100 µM: HCT-15

COC(=O)/C=C/c1cc(OC)c2c(c1)C(C(=O)OC)C(c1ccc(O)c(OC)c1)O2 (centres undefined)
inactive: 786-0 3.44 µM and 2.21 µM and 4.33 µM | A498 8.95 µM and 15.2 µM and 8.2 µM | A549 6.25 µM and 5.69 µM and 6 µM | DU-145 3.72 µM and 3.18 µM and 4.32 µM | Hs-578T 2.69 µM and 2.38 µM and 1.67 µM | KM12 2.83 µM and 3.34 µM and 2.13 µM | M14 4.05 µM and 5.74 µM and 3.53 µM | MDA-MB-231 2.49 µM and 4.51 µM and 3.15 µM | Malme-3M 4.58 µM and 4.39 µM and 2.74 µM | NCI-H23 5.08 µM and 3.93 µM and 5.18 µM | PC-3 3.13 µM and 2.84 µM and 2.79 µM | RXF 393 1.88 µM and 2.98 µM and 2.43 µM | SF-268 7.87 µM and 8.04 µM and 5.83 µM | SF-295 2.2 µM and 2.36 µM and 1.22 µM | SF-539 2.69 µM and 2.17 µM and 1.82 µM | SK-MEL-5 2.27 µM and 2.57 µM and 1.4 µM | SK-OV-3 5.71 µM and 5.64 µM and 3.26 µM | SNB-75 1.95 µM and 1.51 µM and 1.94 µM | T47D 3.87 µM and 7.14 µM and 3.73 µM | U-251 3.4 µM and 3.29 µM and 3.13 µM | UO-31 4.98 µM and 4.86 µM and 9.53 µM

CC1OC(c2ccccc2)=CC(OCc2ccccc2)[C@H]1OCc1ccccc1 (some centres undefined)
> 10 µM: HCT-15
inactive: 786-0 > 10 µM | A549 > 10 µM | CAKI-1 > 10 µM | CCRF-CEM > 10 µM | EKVX > 10 µM | HCC 2998 > 10 µM | HOP-62 > 10 µM | IGROV-1 > 10 µM | KM12 > 10 µM | M14 > 10 µM | MCF7 > 10 µM | MDA-MB-231 > 10 µM | MDA-N > 10 µM | MOLT-4 > 10 µM | Malme-3M > 10 µM | NCI-H23 > 10 µM | OVCAR-8 > 10 µM | PC-3 > 10 µM | RPMI-8226 > 10 µM | RXF 393 > 10 µM | SF-268 > 10 µM | SF-295 > 10 µM | SK-MEL-28 > 10 µM | SK-MEL-5 > 10 µM | SK-OV-3 > 10 µM | SN12C > 10 µM | SNB-75 > 10 µM | SR > 10 µM | SW-620 > 10 µM | T47D > 10 µM | TK-10 > 10 µM | UACC-62 > 10 µM
